From publication PMC9706020, “Isovitexin Is a Direct Inhibitor of Staphylococcus aureus Coagulase” (Journal of Microbiology and Biotechnology, 2021) come the findings set out here.

Assay [1] concerns the target T1, S. aureus coagulase (Coa); 6×His-Coa; WT-Coa (Staphylococcus aureus, UniProt Q2G1D3).
T1 construct: gene SAOUHSC_00192; 6×His-tagged Coa from pET15b-Coa, expressed in E. coli BL21(DE3), Ni-NTA purified
The assay can be described thus: intrinsic fluorescence quenching. It is filed as binding.

For assay [2], the target named is T1, S. aureus coagulase (Coa); 6×His-Coa; WT-Coa. The assay can be described thus: plate coagulation assay (agarose, fibrinogen, rabbit plasma). Type of assay: biochemical. The settings on record: 2.5 mg/ml Coa; 37 °C overnight; rabbit plasma as prothrombin source.
Assay [3] addresses T2, S. aureus coagulase (Coa); 6×His-Coa; WT-Coa (Staphylococcus aureus, UniProt Q2G1D3, Y188A).
T2 construct: gene SAOUHSC_00192
Briefly: biochemical. An excerpt:
(§1) intrinsic fluorescence quenching on S. aureus coagulase (Coa); 6×His-Coa; WT-Coa

In assay [4] the target is T3, S. aureus coagulase (Coa); 6×His-Coa; WT-Coa (Staphylococcus aureus, UniProt Q2G1D3, P268A).
T3 construct: gene SAOUHSC_00192
Briefly: biochemical.
Excerpt: as §1

The target of assay [5] is T4, S. aureus coagulase (Coa); 6×His-Coa; WT-Coa (Staphylococcus aureus, UniProt Q2G1D3, N267A).
T4 construct: gene SAOUHSC_00192
Briefly: biochemical.
Excerpt: as §1

Assay [6] addresses T5, S. aureus coagulase (Coa); 6×His-Coa; WT-Coa (Staphylococcus aureus, UniProt Q2G1D3, V191A).
T5 construct: gene SAOUHSC_00192
The assay can be described thus: biochemical.
Excerpt: as §1

Usually Kd stands for a measure of binding affinity in units of concentration. A higher Kd goes with lower affinity. On to `O=c1cc(-c2ccc(O)cc2)oc2cc(O)c([C@@H]3O[C@H](CO)[C@@H](O)[C@H](O)[C@H]3O)c(O)c12` [isovitexin, apigenin-6-C-β-glucopyranoside], for which the Kd in assay [1] is 10 µM; in assay [3], 11.4 µM; in assay [4], 19.4 µM; in assay [5], 12.4 µM; in assay [6], 23 µM. The “diameter of coagulation zone, % of control, at 128 μg/ml” value in assay [2] turned out to be 47.50%.
